The source made the active and inactive calls. The rule behind the calls is not given here.
System: Mycobacterium tuberculosis
Assay: Antibacterial activity against Mycobacterium tuberculosis H37Rv assessed as frequency of spontaneous resistant mutant at 5 and 10 times MIC90 measured after 5 weeks
Type: functional, organism-based

`CC(=O)NC[C@H]1CN(c2ccc3c(c2)Oc2ccccc2O3)C(=O)O1` was tested, and the Activity was “inactive”.
